Laboratory results reported in article PMC8476002, “Bergamottin a CYP3A inhibitor found in grapefruit juice inhibits prostate cancer cell growth by downregulating androgen receptor signaling and promoting G0/G1 cell cycle block and apoptosis” (PLoS ONE, 2021).

What was measured:
[1] = tested on: PSA in LNCaP cells; assay: Western blotting of PSA, LNCaP; assay type: cell-based, human; conditions: 10μM, 96 hours
Description: (§1) Cells were plated at 25–30% confluence when maintained in complete media. When the cells required DHT tretment and media replacement to charcoal stripped serum media (CSSM) they were plated at 35–40% confluence. Bergamottin is dissolved in DMSO (vehicle control) and the amount of DMSO at each treatment group was kept constant. After the completion of the treatment cells were washed in phosphate buffer (PBS) containing 2mMEDTA and 2mM EGTA and lysed in RIPA buffer (50 mM TRIS, 150 mM NaCl, 1% NP40, 0.5% sodium deoxycholate, 0.1% SDS, 2mM EDTA, 2mM EGTA) supplemented with protease and phosphatase inhibitors for total protein isolation. Protein estimation was performed using micro BCA assay and equal protein amponts were loaded on SDS-PAGE gels for western analysis. GAPDH was used as an internal control for total protein. Infrared fluorescent-labeled secondary antibodies were used for detection using Odyssey CLx. The bands were quantified using Odyssey software, which calculates pixel density and automatically takes an area adjacent to each band for background corrections.

[2] = tested on: cell cycle regulating proteins in LNCaP cells; assay: Western blot of cell cycle regulating proteins, LNCaP; assay type: cell-based, human; conditions: for CDK2, normalized fold change after GAPDH calibration / CDK4, normalized fold change after GAPDH calibration / CDK6, normalized fold change after GAPDH calibration / Cyclin A, normalized fold change after GAPDH calibration / Cyclin B1, normalized fold change after GAPDH calibration / Cyclin D1, normalized fold change after GAPDH calibration / Cyclin D3, normalized fold change after GAPDH calibration / Cyclin E, normalized fold change after GAPDH calibration / Myt 1, normalized fold change after GAPDH calibration / P-Wee1, normalized fold change after GAPDH calibration / P-cdc2, normalized fold change after GAPDH calibration / P-histone H3, normalized fold change after GAPDH calibration / p21, normalized fold change after GAPDH calibration / p27, normalized fold change after GAPDH calibration: LNCAP, 48 hrs., 0 μM = 100
Description: as §1, with “corrections. […]” for “corrections.”

[3] = tested on: AR nuclear localization in LNCaP cells; assay: Confocal microscopy of AR nuclear localization, LNCaP; assay type: cell-based, human; conditions: bergamottin 10μM, versus DMSO
Description: Cells were seeded into 35 mm Glass bottom dish (Cellvis catalog# D35C4-20-1.5-N) in complete media; media was changed to CSSM prior to DHT treatment. The cells were fixed in 4% paraformaldehyde for 20 minutes and permeabilized using permeabilizing buffer (0.2% Tween 20 in PBS) for 5 minutes. Cells were blocked using 10% goat serum diluted in permeabilizing buffer with 1% BSA for 15 minutes. Primary antibodies were diluted at 1:100 in staining buffer (1% BSA in PBS) and incubated for 2 hours at room temperature. Cells were washed three times (5 minutes each) in PBS. Secondary antibodies, TRITC-conjugated Donkey Anti-rabbit (711-025-152) was from Jackson immuno research, West Grove, PA was diluted at 1:100 in staining buffer and incubated for 60 minutes at room temperature. Cells were washed three times (5 minutes) in PBS and stained with 1 μg/mL DAPI (4’, 6-diamidino-2-phenylindole) in PBS for 5 minutes at room temperature. The cells were stored in PBS at 4°C until imaging was completed.
Cells were imaged using confocal laser scanning microscopy on a Nikon A1R using a galvano scanner and a 60× Apo-TIRF oil immersion objective. NIS Elements software form Nikon was used for recording the data.

[4] = tested on: several other cancer cell types; parameters: method as in PMID 25130169, PMID 27222242, PMID 10552768, PMID 28726768, PMID 26911804; conditions: read-out: IC50 for growth of several other cancer cell types; cited from earlier work
[5] = LNCaP, low dose 5 and 10 μM, 96 hrs.

Compound: CC(C)=CCC/C(C)=C/COc1c2ccoc2cc2oc(=O)ccc12 [bergamottin]
- PSA levels [1]: significantly reduced PSA levels
- CDK2, normalized fold change after GAPDH calibration ([2]; Bergamottin 20 μM): 62
- CDK4, normalized fold change after GAPDH calibration ([2]; Bergamottin 20 μM): 46
- CDK6, normalized fold change after GAPDH calibration ([2]; Bergamottin 20 μM): 60
- Cyclin A, normalized fold change after GAPDH calibration ([2]; Bergamottin 20 μM): 80
- Cyclin B1, normalized fold change after GAPDH calibration ([2]; Bergamottin 20 μM): 50
- Cyclin D1, normalized fold change after GAPDH calibration ([2]; Bergamottin 20 μM): 43
- Cyclin D3, normalized fold change after GAPDH calibration ([2]; Bergamottin 20 μM): 68
- Cyclin E, normalized fold change after GAPDH calibration ([2]; Bergamottin 20 μM): 109
- Myt 1, normalized fold change after GAPDH calibration ([2]; Bergamottin 20 μM): 103
- P-Wee1, normalized fold change after GAPDH calibration ([2]; Bergamottin 20 μM): 63
- P-cdc2, normalized fold change after GAPDH calibration ([2]; Bergamottin 20 μM): 18
- P-histone H3, normalized fold change after GAPDH calibration ([2]; Bergamottin 20 μM): 294
- p21, normalized fold change after GAPDH calibration ([2]; Bergamottin 20 μM): 83
- p27, normalized fold change after GAPDH calibration ([2]; Bergamottin 20 μM): 112
- CDK2, normalized fold change after GAPDH calibration ([2]; Bergamottin 30 μM): 67
- CDK4, normalized fold change after GAPDH calibration ([2]; Bergamottin 30 μM): 30
- CDK6, normalized fold change after GAPDH calibration ([2]; Bergamottin 30 μM): 12
- Cyclin A, normalized fold change after GAPDH calibration ([2]; Bergamottin 30 μM): 55
- Cyclin B1, normalized fold change after GAPDH calibration ([2]; Bergamottin 30 μM): 44
- Cyclin D1, normalized fold change after GAPDH calibration ([2]; Bergamottin 30 μM): 12
- Cyclin D3, normalized fold change after GAPDH calibration ([2]; Bergamottin 30 μM): 44
- Cyclin E, normalized fold change after GAPDH calibration ([2]; Bergamottin 30 μM): 53
- Myt 1, normalized fold change after GAPDH calibration ([2]; Bergamottin 30 μM): 82
- P-Wee1, normalized fold change after GAPDH calibration ([2]; Bergamottin 30 μM): 37
- P-cdc2, normalized fold change after GAPDH calibration ([2]; Bergamottin 30 μM): 5
- P-histone H3, normalized fold change after GAPDH calibration ([2]; Bergamottin 30 μM): 35
- p21, normalized fold change after GAPDH calibration ([2]; Bergamottin 30 μM): 102
- p27, normalized fold change after GAPDH calibration ([2]; Bergamottin 30 μM): 183
- CDK4 level (western blot) [2, 5]: did not observe any significant change
- CDK6 level (western blot) [2, 5]: did not observe any significant change
- cdc-2 phosphorylation (western blot) [2, 5]: Decreased cdc-2 phosphorylation
- cyclin B1 level (western blot) [2, 5]: lower
- cyclin D1 level (western blot) [2, 5]: lower
- cyclin D3 level (western blot) [2, 5]: lower
- active AR migration to the nucleus with DHT induction (confocal) [3]: significantly reduced
- IC50 [4]: 30 to 100 µM
